According to patent US20080021099A1, “5-Cyano-prostacyclin derivatives as agents for the treatment of autoimmune disease” (Bayer Schering Pharma Aktiengesellschaft, priority 2006, published 2008):
Like-named read-outs stand apart in the source and are kept apart here.

Assays:
Assay type in all cases: cell-based
[1] = system: Human monocyte derived dendritic cells; experiment: LPS-stimulated monocyte-derived dendritic cell IL-12 release, ELISA; conditions: for inhibition at 1 µM: Homo sapiens, Dendritic cell, 18 h, read-out: Inhibition (percent) of IL-12 release; for inhibition at 1 µM / Inhibition (percent) of IL-12 release: 10 ng/mL LPS, approx. 18 hr; for Inhibition (percent) of IL-12 release: 1 µM of PGE2
Text: Following stimulation through the toll-like receptors TLR, DCs express and release proinflammatory cytokines and chemokines and may induce activation and proliferation of naïve T cells. The binding of Nileprost to the EP receptor inhibits TLR4 ligand (LPS)-stimulated IL-12 release. Therefore, Nileprost skews the CD4 T cell differentiation to a Th-2 lineage.
IL-12 is a 75 kDa glycoprotein heterodimer (p70) composed of two genetically unrelated subunits linked by a disulfide bond. Enzyme-linked immunosorbant assays based on antibodies specific to IL-12 p70 are commercially available. Standards and samples are pipetted into the wells of a microplate. An antibody specific to human IL-12 is added to the wells. A substrate is added to the wells and color develops in proportion to the amount of IL-12 bound. The intensity of the color is measured.
Human monocyte-derived dendritic cells were isolated from human donors using a Ficoll density gradient and residual erythrocytes were removed by selective lysis. CD14 MicroBeads were used for separation of human cells based on the expression of the CD14 antigen. The dendritic cells were cultured at approximately 1.5×10^6 cells per mL in RPMI1640 with fetal bovine serum, 200 ng/mL GM-CSF (Leukine) and 10 ng/mL IL-4. The cells grew for a period of 3 days and then the media was changed. 10 ng/mL LPS was used to activate the cells. 1 μM of Nileprost and 1 µM of PGE2 were added during the LPS stimulation. Cells were incubated for approximately 18 hr at 37° C. IL-12 released during activation was measured by ELISA.

human T cells = experiment: ConA-stimulated T lymphocyte Th-1 cytokine (IFN-γ) release, ELISA; conditions: for inhibition at 0.0005 µM / inhibition at 0.00125 µM / inhibition at 0.0025 µM / inhibition at 0.005 µM / inhibition at 0.01 µM / inhibition at 0.02 µM: Homo sapiens, T-cell, 18 h, ConA 2 μg/mL, approx. 18 hr, read-out: Inhibition (percent) of IFN-γ release; for inhibition at 0.0005 µM: Nileprost 0.5 nM; for inhibition at 0.00125 µM: Nileprost 1.25 nM; for inhibition at 0.0025 µM: Nileprost 2.5 nM; for inhibition at 0.005 µM: Nileprost 5 nM; for inhibition at 0.01 µM: Nileprost 10 nM; for inhibition at 0.02 µM: Nileprost 20 nM
Text: The activation of a human T lymphocyte by an antigen-presenting cell and antigen through the T cell receptor is mimicked in experimental conditions by the lectin Concanavilin A (ConA). It is known that ConA binds to the T cell receptor and stimulates the cell to release various cytokines. The binding of Nileprost to the EP receptor inhibits various cytokines release. One of the Th-1 released cytokines is IFN-γ. The biochemistry and biological activities of IFN-γ have been extensively reviewed in the literature.
Human IFN-γ is a dimer of the expressed 143 amino acid protein. Enzyme-linked immunosorbant assays (ELISA) based on antibodies specific to IFN-γ are commercially available. Standards and samples are pipetted into the wells of a microplate. An antibody specific to human IFN-γ is added to the wells. A substrate is added to the wells and color develops in proportion to the amount of IFN-γ bound. The intensity of the color is measured.
Peripheral blood lymphocytes were isolated from human donors using a Ficoll density gradient and residual erythrocytes were removed by selective lysis. The lymphocytes are cultured at approximately 10^6 cells per mL in RPMI1640 with 10% additional fetal bovine serum. The cell cultures were activated with 2 μg/mL of ConA as described above. Nileprost was added at various dilutions during the ConA activation. Cells were incubated for approximately 18 hr at 37° C. IFN-γ released during activation was measured by ELISA.

human CD8 cells = experiment: Anti-CD3/CD28-stimulated cytotoxic CD8+ lymphocyte cytokine release, multi-cytokine bead immunoassay; conditions: 1 μM Nileprost; for inhibition at 1 µM: Homo sapiens, Lymphocyte, Anti-CD3/CD28 stimulation, overnight
Text: The activation of a human T lymphocyte by an antigen-presenting cell and antigen through the T cell receptor is mimicked in experimental conditions by the addition of antibodies to the CD3 subunit of the T cell receptor and antibodies to the CD28 costimulatory receptor. It is known that anti-CD3 anti-CD28 binding to T lymphocytes stimulates the cells to release various cytokines. Some of these cytokines are IL-2, IFN-γ and GM-CSF. The biochemistry and biological activities of these cytokines have been extensively reviewed in the literature. The binding of Nileprost to the EP receptor inhibits the release of various CD8+ cytokines.
Multi-cytokine immunosorbant assays based on antibodies specific to human cytokines are commercially available. Standards and samples are pipetted into sample tubes. A monoclonal antibody specific for a cytokine is covalently linked to a fluorescent bead set, which captures the cytokine. A complementary biotinylated monoclonal cytokine antibody then completes the immunological sandwich and the reaction is detected with streptavidin-phycoerythrin.
CD14-negative populations were isolated from four donors by Miltenyi CD14 beads. The four populations were allowed to rest at 5×10^6/mL in separate flasks overnight in RPMI 1640, 10% fetal bovine serum. Meanwhile, anti-CD3 antibody (OKT3, functional antibody, eBioscience) were bound to 10 cm plates at 5 μg/mL in sodium carbonate binding buffer at 4° C. The next day, the cells were mixed and 1×10^9 cells were taken for CD8 isolation using the Milenyi CD8 isolation kit (negative selection). The resulting 3.9×10^8 CD8 cells were resuspended in medium at 4×10^6/mL and added to the 10 cm CD3-bound plates. Soluble anti-CD28 (2-5 μg/mL) and 1 μM Nileprost or vehicle alone were added to the CD8 cells. Incubation was continued overnight and cytokines were detected as described above.

CCCCC(C)[C@H](O)/C=C/[C@@H]1[C@H]2C/C(=C(\C#N)CCCC(=O)O)O[C@H]2C[C@H]1O (some centres unmarked) [Nileprost]
Inhibitory activity in human monocyte-derived dendritic cell (DC) cytokine release (in words) ([1]; 1 μM of Nileprost): very high inhibitory activity
inhibition at 1 µM ([1]; Donor 1, 1 μM of Nileprost): 84%
inhibition at 1 µM ([1]; Donor 2, 1 μM of Nileprost): 51%
inhibition at 1 µM ([1]; Donor 3, 1 μM of Nileprost): 69%
inhibition at 1 µM ([1]; Donor 4, 1 μM of Nileprost): 66%
inhibition at 0.0005 µM (human T cells; Donor 1): 17%
inhibition at 0.00125 µM (human T cells; Donor 1): 23%
inhibition at 0.0025 µM (human T cells; Donor 1): 45%
inhibition at 0.005 µM (human T cells; Donor 1): 56%
inhibition at 0.01 µM (human T cells; Donor 1): 50%
inhibition at 0.02 µM (human T cells; Donor 1): 67%
inhibition at 0.0005 µM (human T cells; Donor 2): 2%
inhibition at 0.00125 µM (human T cells; Donor 2): 11%
inhibition at 0.0025 µM (human T cells; Donor 2): 17%
inhibition at 0.005 µM (human T cells; Donor 2): 35%
inhibition at 0.01 µM (human T cells; Donor 2): 43%
inhibition at 0.02 µM (human T cells; Donor 2): 41%
inhibition at 0.0005 µM (human T cells; Donor 3): 26%
inhibition at 0.00125 µM (human T cells; Donor 3): 36%
inhibition at 0.0025 µM (human T cells; Donor 3): 43%
inhibition at 0.005 µM (human T cells; Donor 3): 54%
inhibition at 0.01 µM (human T cells; Donor 3): 64%
inhibition at 0.02 µM (human T cells; Donor 3): 68%
inhibition at 0.0005 µM (human T cells; Donor 4): 21%
inhibition at 0.00125 µM (human T cells; Donor 4): 29%
inhibition at 0.0025 µM (human T cells; Donor 4): 31%
inhibition at 0.005 µM (human T cells; Donor 4): 48%
inhibition at 0.01 µM (human T cells; Donor 4): 55%
inhibition at 0.02 µM (human T cells; Donor 4): 56%
Inhibitory activity in T lymphocyte Th-1 cytokine release (in words) (human T cells; dose responsively, 0.5-20 nM): very high inhibitory activity
Inhibitory activity in cytotoxic CD8+ lymphocyte cytokine release (in words) (human CD8 cells): very high inhibitory activity
inhibition at 1 µM (human CD8 cells; Donor 1, read-out: Inhibition (percent) of GM-CSF release): 77%
inhibition at 1 µM (human CD8 cells; Donor 1, read-out: Inhibition (percent) of IFN-γ release): 79%
inhibition at 1 µM (human CD8 cells; Donor 1, read-out: Inhibition (percent) of IL-2 release): 71%
inhibition at 1 µM (human CD8 cells; Donor 2, read-out: Inhibition (percent) of GM-CSF release): 65%
inhibition at 1 µM (human CD8 cells; Donor 2, read-out: Inhibition (percent) of IFN-γ release): 59%
inhibition at 1 µM (human CD8 cells; Donor 2, read-out: Inhibition (percent) of IL-2 release): 68%
inhibition at 1 µM (human CD8 cells; Donor 3, read-out: Inhibition (percent) of GM-CSF release): 87%
inhibition at 1 µM (human CD8 cells; Donor 3, read-out: Inhibition (percent) of IFN-γ release): 79%
inhibition at 1 µM (human CD8 cells; Donor 3, read-out: Inhibition (percent) of IL-2 release): 88%
inhibition at 1 µM (human CD8 cells; Donor 4, read-out: Inhibition (percent) of GM-CSF release): 61%
inhibition at 1 µM (human CD8 cells; Donor 4, read-out: Inhibition (percent) of IFN-γ release): 80%
inhibition at 1 µM (human CD8 cells; Donor 4, read-out: Inhibition (percent) of IL-2 release): 70%

CCCCC[C@H](O)/C=C/[C@H]1[C@H](O)CC(=O)[C@@H]1C/C=C\CCCC(=O)O [PGE2, Prostaglandin E2, reference compound]
Inhibition (percent) of IL-12 release ([1]; Donor 1): 80%
Inhibition (percent) of IL-12 release ([1]; Donor 2): 33%
Inhibition (percent) of IL-12 release ([1]; Donor 3): 83%
Inhibition (percent) of IL-12 release ([1]; Donor 4): 72%
